Experimental data reported in patent US8067424B2, “Selective inhibitors for cyclin-dependent kinases” (Emory University, priority 2007, dated 2011).
Where two headings read alike, the source gives them in different places.

Legend:
Type in all cases: biochemical
[1] = target: FGF-R1 (Homo sapiens, UniProt P11362); assay: Kinase screen: FGF-R1 assay; conditions: 10 micromolar compound; for remaining activity at 10 µM: read-out: mean activity remaining (as a percentage of the original activity), FGF-R1
FGF-R1, sequence (P11362 22-822, species assumed): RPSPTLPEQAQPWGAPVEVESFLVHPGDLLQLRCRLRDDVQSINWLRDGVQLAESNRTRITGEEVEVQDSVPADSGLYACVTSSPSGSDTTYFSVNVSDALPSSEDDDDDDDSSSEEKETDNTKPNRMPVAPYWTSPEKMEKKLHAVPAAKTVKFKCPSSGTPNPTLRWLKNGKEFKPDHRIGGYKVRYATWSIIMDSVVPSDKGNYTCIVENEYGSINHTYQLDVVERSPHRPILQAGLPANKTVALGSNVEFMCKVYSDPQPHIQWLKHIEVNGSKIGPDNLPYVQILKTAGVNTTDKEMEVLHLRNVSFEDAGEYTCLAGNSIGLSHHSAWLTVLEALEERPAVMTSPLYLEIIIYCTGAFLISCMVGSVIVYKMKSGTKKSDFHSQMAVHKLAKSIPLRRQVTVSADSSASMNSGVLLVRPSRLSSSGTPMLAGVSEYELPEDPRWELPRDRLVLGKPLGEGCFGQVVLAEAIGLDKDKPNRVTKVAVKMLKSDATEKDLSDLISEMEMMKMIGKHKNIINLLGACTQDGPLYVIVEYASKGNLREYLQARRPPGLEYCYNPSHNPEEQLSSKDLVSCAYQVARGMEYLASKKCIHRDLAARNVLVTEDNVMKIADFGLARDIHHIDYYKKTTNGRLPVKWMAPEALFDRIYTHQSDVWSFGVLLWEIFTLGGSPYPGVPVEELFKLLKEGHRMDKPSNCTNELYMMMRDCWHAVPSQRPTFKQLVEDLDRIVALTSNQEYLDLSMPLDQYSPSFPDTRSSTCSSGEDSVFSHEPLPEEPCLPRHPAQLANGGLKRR
Experimental: (§1) Generally, the same procedure was used for all assays. Since the total assay volume was 25.5 microliters, 0.5 microliters of inhibitors at 51× assay concentration were added to the plates before any other addition.
(§2) The basic procedure was to add 0.5 microliters inhibitor/control in DMSO to plate. Fifteen microliters of enzyme/substrate/buffer mix were added and incubated for 5 min. Ten microliters MgATP at the relevant concentration were added and incubated for 30 min. The assay was stopped by adding 5 microliters of 3% orthophosphoric acid. The assay was transferred to a p81 filter plate and read in a scintillation counter of 30 sec/well. Note that this assay procedure was not followed for MKK1, which instead involved a two-step assay, and PKC alpha, which required the addition of lipid vesicles.
FGF-R1 assay: FGF-R1 (5-20 mU diluted in 50 mM Tris pH 7.5, 0.1 mM EGTA, 1 mg/ml BSA) was assayed against a substrate peptide (Poly Glut Tyr) in a final volume of 25.5 μl containing 50 mM Tris pH 7.5, 1 mg/ml substrate peptide, 10 mM magnesium acetate and 0.02 mM [33P-g-ATP] (50-1000 cpm/pmole) and incubated for 30 min at room temperature. Assays were stopped by addition of 5 μl of 0.5 M (3%) orthophosphoric acid and then harvested onto P81 Unifilter plates with a wash buffer of 50 mM orthophosphoric acid.

[2] = target: PKCα (Homo sapiens, UniProt P17252); assay: Kinase screen: PKCa assay
Experimental: as §1, §2
PKCa assay: PKCa (5-20 mU diluted in 20 mM Hepes pH 7.4, 0.03% Triton X-100) was assayed against Histone H1 in the presence of PtdSerine and DAG (0.1 mg/ml. and 10 μg/ml) and 0.1 mM CaCl2. The assay was carried out in a final volume of 25.5 μl containing 20 mM Hepes pH 7.4, 0.03% Triton X-100, 0.1 mg/ml Histone H1, 10 mM magnesium acetate and 0.02 mM[33P-g-ATP] (50-1000 cpm/pmole) and incubated for 30 min at room temperature. Assays were stopped by addition of 5 μl of 0.5 M (3%) orthophosphoric acid and then harvested onto P81 Unifilter plates with a wash buffer of 50 mM orthophosphoric acid.
PtdSer/DAG preparation: PtdSer stock was 10 mg/ml in MeOH/Chloroform (1:2). The required amount was dried down and re-suspended in an appropriate volume of 10 mM Hepes pH 7.4, vortexed, and briefly sonicated (2×10^−15 seconds at 10-15 seconds apart). DAG stock was 10 mg/ml in MeOH/chloroform (1:2). The required amount was dried down and sonicated PtdSer solution was added, vortexed and sonicated.

[3] = target: T1, ERK8 (Homo sapiens, UniProt Q8TD08); assay: Kinase screen: ERK8 assay
T1 sequence (Q8TD08 1-544): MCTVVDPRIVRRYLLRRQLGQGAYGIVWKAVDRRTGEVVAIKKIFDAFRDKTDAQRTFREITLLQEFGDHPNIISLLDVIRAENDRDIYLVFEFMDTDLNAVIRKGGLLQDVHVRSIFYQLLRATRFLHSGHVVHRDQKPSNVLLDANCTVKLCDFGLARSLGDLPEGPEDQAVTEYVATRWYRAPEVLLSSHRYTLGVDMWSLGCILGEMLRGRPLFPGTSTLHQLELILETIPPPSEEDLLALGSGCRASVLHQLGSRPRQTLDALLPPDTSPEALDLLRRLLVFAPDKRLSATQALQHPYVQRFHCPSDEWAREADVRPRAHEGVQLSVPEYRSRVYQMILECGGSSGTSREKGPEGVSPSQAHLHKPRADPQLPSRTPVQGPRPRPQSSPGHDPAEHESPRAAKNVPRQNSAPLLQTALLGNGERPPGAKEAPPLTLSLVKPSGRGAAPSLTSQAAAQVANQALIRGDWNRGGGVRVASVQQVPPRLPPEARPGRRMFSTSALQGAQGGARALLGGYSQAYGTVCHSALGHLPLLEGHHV
Experimental: as §1, §2
(§3) ERK8 assay: 5-20 mU of ERK8 (diluted in 50 mM Tris (pH 7.5), 0.1 mM EGTA, 1 mg/ml BSA, 0.1%, b-Mercaptoethanol) was assayed against MBP in a final volume of 25.5 μl containing 50 mM Tris (pH 7.5), 0.1 mM EGTA, 0.1%, b-Mercaptoethanol, 0.33 mg/ml MBP, 10 mM magnesium acetate and 0.005 mM [33P-g-ATP] (500-1000 cpm/pmole) and incubated for 30 mins at room temperature. Assays were stopped by addition of 5 μl of 0.5M (3%) orthophosphoric acid. Assays were harvested onto P81 Unifilter plates using a wash buffer of 50 mM orthophosphoric acid.

[4] = target: SRPK1 (Homo sapiens, UniProt Q96SB4); assay: Kinase screen: SRPK1 assay
SRPK1, sequence (Q96SB4 whole entry, species assumed): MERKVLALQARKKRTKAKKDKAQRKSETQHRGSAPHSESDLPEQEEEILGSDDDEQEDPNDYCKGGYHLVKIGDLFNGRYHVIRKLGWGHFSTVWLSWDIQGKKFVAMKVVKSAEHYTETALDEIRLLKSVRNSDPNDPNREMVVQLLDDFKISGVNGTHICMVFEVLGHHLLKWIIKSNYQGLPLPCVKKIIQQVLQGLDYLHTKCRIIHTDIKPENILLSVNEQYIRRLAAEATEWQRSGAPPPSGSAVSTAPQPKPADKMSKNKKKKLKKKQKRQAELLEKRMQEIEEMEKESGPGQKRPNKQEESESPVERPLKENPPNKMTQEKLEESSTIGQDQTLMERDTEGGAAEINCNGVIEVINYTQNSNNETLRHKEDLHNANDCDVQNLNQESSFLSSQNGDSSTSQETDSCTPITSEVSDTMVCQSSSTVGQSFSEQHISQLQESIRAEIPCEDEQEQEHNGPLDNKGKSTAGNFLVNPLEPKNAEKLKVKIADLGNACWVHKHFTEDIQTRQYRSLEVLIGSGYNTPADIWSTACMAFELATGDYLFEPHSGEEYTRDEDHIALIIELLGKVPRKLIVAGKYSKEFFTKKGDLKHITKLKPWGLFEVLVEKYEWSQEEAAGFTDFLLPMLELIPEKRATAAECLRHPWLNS
Experimental: as §1, §2
as §3, with “SRPK1” for “ERK8”, “substrate peptide ([…]) (SEQ ID NO: 25)” for “MBP”, “300 μM substrate peptide,” for “0.33 mg/ml MBP,”, “0.05” for “0.005”

[5] = 10 micromolar compound, read-out: mean activity remaining (as a percentage of the original activity), PKCa
[6] = 10 micromolar compound, read-out: mean activity remaining (as a percentage of the original activity), ERK8
[7] = 10 micromolar compound, read-out: mean activity remaining (as a percentage of the original activity), SRPK1

SMILES	remaining activity at 10 µM [1]	remaining activity at 10 µM [2, 5]	remaining activity at 10 µM [3, 6]	remaining activity at 10 µM [4, 7]	further results
CC[C@H](CO)Nc1cc(NCc2ccccc2)n2ncc(C(C)C)c2n1 [ICEC0067]	78%	93%	23%	50%	
CC(C)c1cnn2c(NCc3ccccc3F)cc(NCCCCCN)nc12 [ICEC-0232]					mean activity remaining (as a percentage of the original activity), FGF-R1 [1]: 82%; mean activity remaining (as a percentage of the original activity), PKCa ([2]; 10 micromolar compound): 80%; mean activity remaining (as a percentage of the original activity), ERK8 ([3]; 10 micromolar compound): 23%; mean activity remaining (as a percentage of the original activity), SRPK1 ([4]; 10 micromolar compound): 38%
CC(C)c1cnn2c(NCc3ccccc3)cc(NCCCCCCCN)nc12 [BS-181]					remaining activity at 10 µM ([2]; PKCα, 10 μM, read-out: Mean Remaining Enzyme Activity (%)): 98%; remaining activity at 10 µM ([3]; ERK8, 10 μM, read-out: Mean Remaining Enzyme Activity (%)): 32%; remaining activity at 10 µM ([4]; SRPK1, 10 μM, read-out: Mean Remaining Enzyme Activity (%)): 44%
CC(C)c1cnn2c(NCc3ccccc3)cc(N[C@@H](CO)[C@H](O)CO)nc12 [ICEC0318, (3S)-3-(7-(Benzylamino)-3-isopropylpyrazolo[1,5-a]pyrimidin-5-ylamino)butane-1,2,4-triol]	86%	96%	26%	62%	
C=C[C@H](CO)Nc1cc(NCc2ccccc2)n2ncc(C(C)C)c2n1 [ICEC0065]	87%	101%	28%	84%	
